From patent US20060229302A1, “Tricyclic indole derivatives and their use in the treatment of alzheimer's disease” (priority 2003, published 2006) come the findings set out here.

Structures can show the parent of a compound that is named as a salt.

Sequence of Asp-2 (P56817 46-501): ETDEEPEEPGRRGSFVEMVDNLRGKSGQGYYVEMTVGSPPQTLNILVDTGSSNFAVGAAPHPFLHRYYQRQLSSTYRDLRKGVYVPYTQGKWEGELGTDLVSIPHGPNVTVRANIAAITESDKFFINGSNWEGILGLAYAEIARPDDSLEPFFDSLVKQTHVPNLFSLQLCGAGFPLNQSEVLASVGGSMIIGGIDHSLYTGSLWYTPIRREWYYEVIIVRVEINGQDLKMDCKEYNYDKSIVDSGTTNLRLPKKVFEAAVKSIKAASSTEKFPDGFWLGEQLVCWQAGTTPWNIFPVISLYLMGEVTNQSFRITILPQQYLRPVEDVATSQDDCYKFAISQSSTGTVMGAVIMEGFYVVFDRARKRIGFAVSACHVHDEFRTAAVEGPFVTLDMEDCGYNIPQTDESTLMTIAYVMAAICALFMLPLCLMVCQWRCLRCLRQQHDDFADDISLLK

This assay addresses Asp-2 (Homo sapiens, UniProt P56817). The assay is described as follows: Asp-2 inhibitory assay. Format: biochemical. Conditions: FAM-[[…]]-TAMRA substrate, pH 4.5, 1 h room temperature; read-out: inhibition in the Asp-2 inhibitory assay. How it is done: (I) Asp-2 Inhibitory Assay
For each compound being assayed, in a 384 well plate, is added:
This is prepared by diluting 2 ml of a 2 mM DMSO solution of the substrate into 400 ml of buffer (100 mM Sodium acetate pH=4.5, 1 l Milli-Q water, 0.06% Triton X-100 (0.5 ml/l), pH adjusted to 4.5 using glacial acetic acid).
c) 10 μl enzyme solution. This is prepared by diluting 16 ml of a 500 nM enzyme solution into 384 ml of buffer (prepared as above).
Blank wells (enzyme solution replaced by buffer) are included as controls on each plate.
On to `CCCc1cn2c3c(cc(C(=O)N[C@@H](Cc4ccccc4)[C@H](O)CNCc4cnn(CC)c4)cc13)N(CC)S(=O)(=O)CC2` [Example E51, 1-Ethyl-N-[(1S,2R)-3-{[(1-ethyl-1H-pyrazol-4-yl)methyl]amino}-2-hydroxy-1-(phenylmethyl)propyl]-7-propyl-3,4-dihydro-1H-[1,2,5]thiadiazepino[3,4,5-hi]indole-9-carboxamide 2,2-dioxide formate salt], for which the IC50 was < 1000 nM.

On to `CCc1cn2c3c(cc(C(=O)N[C@@H](Cc4ccccc4)[C@H](O)CNCc4cccc(OC(F)(F)F)c4)cc13)N(C)S(=O)(=O)CC2` [Example E67, 7-Ethyl-N-{(1S,2R)-2-hydroxy-1-(phenylmethyl)-3-[({3-[(trifluoromethyl)oxy]phenyl}methyl)amino]propyl}-1-methyl 3,4-dihydro-1H-[1,2,5]thiadiazepino[3,4,5-hi]indole-9-carboxamide 2,2-dioxide formate salt], for which the IC50 is < 1000 nM.

For `CCc1cn2c3c(cc(C(=O)N[C@@H](Cc4ccccc4)[C@H](O)CNCc4cccc(C)c4)cc13)N(C)S(=O)(=O)CC2` [Example E70, 7-Ethyl-N-[(1S,2R)-2-hydroxy-3-{[(3-methylphenyl)methyl]amino}-1-(phenylmethyl)propyl]-1-methyl-3,4-dihydro-1H-[1,2,5]thiadiazepino[3,4,5-hi]indole-9-carboxamide 2,2-dioxide formate salt], the IC50 is < 1000 nM.

As for `CCc1cn2c3c(cc(C(=O)N[C@@H](Cc4ccccc4)[C@H](O)CN[C@H]4CCc5ccccc54)cc13)N(C)S(=O)(=O)CC2` [Example E72, N-[(1S,2R)-3-[(1S)-2,3-Dihydro-1H-inden-1-ylamino]-2-hydroxy-1-(phenylmethyl)propyl]-7-ethyl-1-methyl-3,4-dihydro-1H-[1,2,5]thiadiazepino[3,4,5-hi]indole-9-carboxamide 2,2-dioxide formate salt], the IC50 is < 1000 nM.

On to `CCc1cn2c3c(cc(C(=O)N[C@@H](Cc4ccccc4)[C@H](O)CNCc4cnn(CC(F)(F)F)c4)cc13)N(C)S(=O)(=O)CC2` [Example E74, 7-Ethyl-N-[(1S,2R)-2-hydroxy-1-(phenylmethyl)-3-({[1-(2,2,2-trifluoroethyl)-1H-pyrazol-4-yl]methyl}amino)propyl]-1-methyl-3,4-dihydro-1H-[1,2,5]thiadiazepino[3,4,5-hi]indole-9-carboxamide 2,2-dioxide formate salt], for which the IC50 is < 1000 nM.

As to `CCc1cn2c3c(cc(C(=O)N[C@@H](Cc4ccccc4)[C@H](O)CNCc4cccc(C(F)(F)F)c4)cc13)N(C)S(=O)(=O)C2C` (stereo partly drawn) [Example E78, 6-Ethyl-N-[(1S,2R)-2-hydroxy-1-(phenylmethyl)-3-({[3-(trifluoromethyl)phenyl]methyl}amino)propyl]-1,3dimethyl-1H-[1,2,5]thiadiazino[3,4,5-hi]indole-8-carboxamide 2,2-dioxide formate salt], the IC50 was < 1000 nM.

On to `CCc1cn2c3c(cc(C(=O)N[C@@H](Cc4ccccc4)[C@H](O)CNC(C)(C)c4cccc(C(F)(F)F)c4)cc13)N(C)S(=O)(=O)C2` [Example E79, 6-Ethyl-N-[(1S,2R)-2-hydroxy-3-({1-methyl-1-[3-(trifluoromethyl)phenyl]ethyl}amino)-1-(phenylmethyl)propyl]-1-methyl-1H-[1,2,5]thiadiazino[3,4,5-hi]indole-8-carboxamide 2,2-dioxide formate salt], for which the IC50 is < 1000 nM.

In the case of `CCc1cn2c3c(cc(C(=O)N[C@@H](Cc4ccccc4)[C@H](O)CNCc4cccc(C(F)(F)F)c4)cc13)N(C)S(=O)(=O)C2` [Example E83, 6-Ethyl-N-[(1S,2R)-2-hydroxy-1-(phenylmethyl)-3-({[3-(trifluoromethyl)phenyl]methyl}amino)propyl]-1-methyl-1H-[1,2,5]thiadiazino[3,4,5-hi]indole-8-carboxamide 2,2-dioxide formate salt], the IC50 was < 1000 nM.

As for `CCc1cn2c3c(cc(C(=O)N[C@@H](Cc4ccccc4)[C@H](O)CNCc4cncc(C(=O)NC)c4)cc13)N(C)S(=O)(=O)CC2` [Example E97, 7-Ethyl-N-[(1S,2R)-2 hydroxy-3-[({5-[(methylamino)carbonyl]-3-pyridinyl}methyl)amino]-1-(phenylmethyl)propyl]-1-methyl-3,4-dihydro-1H-[1,2,5]thiadiazepino[3,4,5-hi]indole-9-carboxamide 2,2-dioxide formate salt], the IC50 is < 1000 nM.

On to `CCc1cc(CNC[C@@H](O)[C@H](Cc2ccccc2)NC(=O)c2cc3c4c(c2)c(CC)cn4CCS(=O)(=O)N3C)on1` [Example E104, 7-Ethyl-N-[(1S,2R)-3-{[(3-ethyl-5-isoxazolyl)methyl]amino}-2-hydroxy-1-(phenylmethyl)propyl]-1-methyl-3,4-dihydro-1H-[1,2,5]thiadiazepino[3,4,5-hi]indole-9-carboxamide 2,2-dioxide], for which the IC50 was < 1000 nM.

For the compound `CCc1cn2c3c(cc(C(=O)N[C@@H](Cc4ccccc4)[C@H](O)CN[C@@H](C)C(=O)NC4CCCCC4)cc13)N(C)S(=O)(=O)CC2` [Example E105, N-[(1S,2R)-3-{[(1S)-2-(Cyclohexylamino)-1-methyl-2-oxoethyl]amino}-2-hydroxy-1-(phenylmethyl)propyl]-7-ethyl-1-methyl-3,4-dihydro-1H-[1,2,5]thiadiazepino[3,4,5-hi]indole-9-carboxamide 2,2-dioxide], the IC50 is < 1000 nM.

Turning to `CCc1cn2c3c(cc(C(=O)N[C@@H](Cc4ccccc4)[C@H](O)CNC4CCC(F)(F)CC4)cc13)N(C)S(=O)(=O)CC2` [Example E106, N-[(1S,2R)-3-[(4,4-Difluorocyclohexyl)amino]-2-hydroxy-1-(phenylmethyl)propyl]-7-ethyl-1-methyl-3,4-dihydro-1H-[1,2,5]thiadiazepino[3,4,5-hi]indole-9-carboxamide 2,2-dioxide formate salt], the IC50 is < 1000 nM.
